Laboratory results published in PubChem BioAssay (NCI).
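Growth conditions: 96-well plates. Treatment: test compound, 48 hours, 5 concentrations. Analysis: linear interpolation between bracketing concentrations; unreached endpoints set to highest concentration. Abbreviation: GI50, concentration required for 50% inhibition of growth. TGI denotes the concentration required for complete inhibition of growth.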

Tests used:
Assay in all cases: growth of human tumour cells (NCI), 48 h
DMS 114 small cell lung = tested on: DMS 114 small cell lung
DMS 273 small cell lung = tested on: DMS 273 small cell lung
HOP-62 NSCLC = tested on: HOP-62 NSCLC
KM20L2 colon = tested on: KM20L2 colon
LXFL 529 NSCLC = tested on: LXFL 529 NSCLC
M19-MEL melanoma = tested on: M19-MEL melanoma
MALME-3M melanoma = tested on: MALME-3M melanoma
OVCAR-8 ovarian = tested on: OVCAR-8 ovarian
SF-295 CNS = tested on: SF-295 CNS
SN12C renal = tested on: SN12C renal
SNB-78 CNS = tested on: SNB-78 CNS
XF 498 CNS = tested on: XF 498 CNS
DLD-1 colon = tested on: DLD-1 colon
HOP-18 NSCLC = tested on: HOP-18 NSCLC
T-47D breast = tested on: T-47D breast
RXF-631 renal = tested on: RXF-631 renal

SMILES	TGI (DMS 114 small cell lung) [µM]	TGI (DMS 273 small cell lung) [µM]	TGI (HOP-62 NSCLC) [µM]	TGI (KM20L2 colon) [µM]	TGI (LXFL 529 NSCLC) [µM]	TGI (M19-MEL melanoma) [µM]	TGI (MALME-3M melanoma) [µM]	TGI (OVCAR-8 ovarian) [µM]	TGI (SF-295 CNS) [µM]	TGI (SN12C renal) [µM]	TGI (SNB-78 CNS) [µM]	TGI (XF 498 CNS) [µM]	TGI (DLD-1 colon) [µM]	TGI (HOP-18 NSCLC) [µM]	TGI (T-47D breast) [µM]	TGI (RXF-631 renal) [µM]	GI50 (HOP-62 NSCLC) [µM]	GI50 (OVCAR-8 ovarian) [µM]	GI50 (SF-295 CNS) [µM]	GI50 (SN12C renal) [µM]
CC(C)(C)S(=O)OC12CC3CC(CC(C3)C1)C2 (configuration not stated)	> 100	> 100	> 100	> 100	> 100	> 100	> 100	> 100	> 100	> 100	> 100	> 100	–	–	–	–	–	–	–	–
CCOC(OC1=C(C#N)CCCC1)C(C)[Se]c1ccccc1 (configuration not stated)	15.4	33.7	> 100	> 100	> 100	96.5	> 100	63.9	> 100	89.9	> 100	57	> 100	> 100	–	–	–	–	–	–
COc1ccc(CCNCCCC2c3ccccc3-c3ccccc32)cc1OC	20.3	21.2	30	12.4	27.5	24.5	27	41.8	29.2	28.7	32.1	28.2	30.5	30.6	34.3	–	–	–	–	–
NC(=O)c1cccc([C@@H]2O[C@H](CO)[C@@H](O)[C@H]2O)c1	32.7	22.9	28	> 94.1	–	60.7	> 100	9.55	28.7	80	24.4	7	35.9	68.6	> 66.6	43.2	–	–	–	–
Cc1cc(Cl)ccc1C1OC(=O)c2c1ccc1ccccc21 (configuration not stated)	–	> 100	> 100	> 100	> 100	> 100	> 100	> 100	> 100	> 100	–	> 100	> 100	–	–	–	–	–	–	–
Cc1ccc(S(=O)(=O)c2c(N)n(CCN(C)C)c3nc4ccccc4nc23)cc1	> 100	> 100	–	–	> 100	> 100	> 100	> 100	> 100	> 100	> 100	> 100	> 100	> 100	–	–	–	–	–	–
COc1ccc2c(c1)CCC(OS(=O)(=O)CC13CCC(CC1=O)C3(C)C)C2=O (configuration not stated)	73.3	58.4	70.8	37.8	> 100	> 100	> 100	38.6	–	35.2	–	93.9	> 100	78.2	–	–	–	–	–	–
CC(CCCOC(c1ccccc1)(c1ccccc1)c1ccccc1)OC(=O)Nc1ccccc1 (configuration not stated)	24.5	29.3	28.1	19.8	26	28.3	29.6	27.1	25.3	24.4	31.9	28.1	27.1	–	–	–	–	–	–	–
CC1(C)O[C@@H](CBr)C[C@H](C[C@H]2C[C@@H](O)C[C@@H](CCOCc3ccccc3)O2)O1	–	–	42.8	–	–	–	35.1	47.7	32.4	79.4	–	–	–	–	38.3	–	–	–	–	–
COc1ccc(C(=O)Nc2ccc3oc(-c4ccccc4)nc3c2)cc1	–	–	> 100	–	–	–	> 100	88.5	> 100	> 100	–	–	–	–	> 100	–	–	–	–	–
CC1=C(C(=O)Nc2ccc([N+](=O)[O-])cc2)C(c2ccccc2F)C(C(=O)Nc2ccc([N+](=O)[O-])cc2)=C(C)N1	87.8	–	47.8	29.8	59.6	55.5	42.6	> 100	63	48.3	–	6.94	> 100	–	–	> 100	–	–	–	–
CCC(=O)N/N=C(\C=C\c1cccc(O)c1)c1sc(Nc2ccc(C)cc2[N+](=O)[O-])nc1C	> 100	> 100	> 100	> 100	> 100	> 100	> 100	> 100	> 100	> 100	> 100	–	> 100	> 100	–	–	–	–	–	–
Cc1ccc(NC(=O)C(=O)Cc2cc[n+]([O-])cc2)cc1	> 100	> 100	> 100	> 100	> 100	> 100	> 100	> 100	> 100	> 100	> 100	> 100	> 100	> 100	–	–	–	–	–	–
O=C(/C=C(\O)c1ccccc1)c1cc(-c2ccccc2)n(-c2ccccc2)n1	–	–	23.9	–	–	–	45.5	15.3	> 100	39.9	–	–	–	–	37.9	–	–	–	–	–
CCOC(=O)C1=C(Nc2ccc(Cl)c(Cl)c2)OC/C1=N\NS(=O)(=O)c1ccc(C)cc1	> 100	–	> 100	> 100	> 100	> 100	> 100	> 100	> 100	> 100	> 100	> 100	> 100	> 100	–	> 100	–	–	–	–
O=c1[nH]c2c(c(=O)[nH]1)SSC2	–	–	23.5	–	–	–	10.1	10.2	36.6	7.95	–	–	–	–	25.2	–	–	–	–	–
CC(=O)O[C@@H](C1C[C@@H](C)[C@H]2[C@@](O)(O1)[C@H](O)[C@@]1(C)C3=CC[C@H]4C(C)(C)[C@@H](OC5OCC(O)C(O)C5O)CC[C@@]45C[C@@]35CC[C@]21C)C(C)(C)O (some centres not stated)	–	–	70.7	–	–	–	51	> 100	48.1	54.8	–	–	–	–	67.7	–	–	–	–	–

SMILES	TGI (DMS 114 small cell lung) [µM]	TGI (DMS 273 small cell lung) [µM]	TGI (HOP-62 NSCLC) [µM]	TGI (KM20L2 colon) [µM]	TGI (LXFL 529 NSCLC) [µM]	TGI (M19-MEL melanoma) [µM]	TGI (MALME-3M melanoma) [µM]	TGI (OVCAR-8 ovarian) [µM]	TGI (SF-295 CNS) [µM]	TGI (SN12C renal) [µM]	TGI (SNB-78 CNS) [µM]	TGI (XF 498 CNS) [µM]	TGI (DLD-1 colon) [µM]	TGI (HOP-18 NSCLC) [µM]	TGI (T-47D breast) [µM]	TGI (RXF-631 renal) [µM]	GI50 (HOP-62 NSCLC) [µM]	GI50 (OVCAR-8 ovarian) [µM]	GI50 (SF-295 CNS) [µM]	GI50 (SN12C renal) [µM]
CC(=O)C1=CCC2c3[nH]c4ccccc4c3CCN2C1 (configuration not stated)	–	> 100	> 100	46.2	> 100	> 100	> 100	> 100	> 100	> 100	> 100	> 100	> 100	> 100	–	> 100	–	–	–	–
COC(=O)c1c(-c2ccccc2)c2sc3ccccc3n2c1N	–	–	> 100	–	–	–	68.1	> 100	> 100	96.1	–	–	–	–	87.5	–	–	–	–	–
O=C1c2ccccc2-c2c1c(-c1cccc(Br)c1)nc1ccc3ccccc3c21	–	–	> 100	–	–	–	> 100	> 100	> 100	> 100	–	–	–	–	> 100	–	–	–	–	–
CC1=NN(C(=O)CC(=O)Nc2cccc(Cl)c2)C(=O)C1N=Nc1ccc(C(=O)O)cc1 (configuration not stated)	–	–	> 100	–	–	–	> 100	> 100	> 100	> 100	–	–	–	–	> 100	–	–	–	–	–
CCC1CN2CCC3(c4ccccc4)CC(C(=O)OC)=CC1C23 (configuration not stated)	–	–	38.4	30.3	28.7	31.1	29.7	33.7	33.1	30.4	44	18.2	39	35.1	–	28.5	–	–	–	–
CCOC(=O)/C(C#N)=C/c1ccc2c(c1)CC1(C2)Cc2cc(CC)c(C(C)O)cc2C1 (configuration not stated)	–	–	36	–	–	–	24.4	44.4	44.3	32.4	–	–	–	–	> 100	–	–	–	–	–
Cc1cc(-c2nc3cccc(F)c3s2)ccc1N	–	–	> 100	–	–	–	> 100	> 100	> 100	> 91.1	–	–	–	–	> 100	–	–	–	–	–
O=C(CSC1=NNC2(C(=O)N1)c1ccccc1-c1ccccc12)NC(=S)Nc1ccccc1	–	–	> 10	–	–	–	> 10	> 10	> 10	> 10	–	–	–	–	> 10	–	–	–	–	–
O=C(Nc1ccn(CCI)c(=O)n1)c1ccccc1	> 100	> 100	> 100	> 100	> 100	> 100	> 100	> 100	> 100	> 100	> 100	–	> 100	> 100	–	–	–	–	–	–
COc1ccc(NC2CC(C)N(C(=O)c3ccccc3)O2)cc1 (configuration not stated)	–	–	> 10	–	–	–	> 10	> 10	> 10	> 10	–	–	–	–	> 10	–	–	–	–	–
Nc1nc(N)c2nc(CNc3ccc(C(=O)NC(CCCCNC(=O)c4ccccc4C(=O)O)C(=O)O)cc3)cnc2n1 (configuration not stated)	–	–	> 100	–	–	–	> 100	> 100	> 100	> 100	–	–	–	–	> 100	–	0.0305	0.0059	0.0191	0.0127
CC1=NN=C(N)NC1=CC(Sc1ccc(Cl)cc1)c1c(O)ccc2ccccc12 (configuration not stated)	–	–	57.7	–	–	–	20.4	43.6	> 57.7	97.3	–	–	–	–	58.9	–	–	–	–	–
O=C(CC1C(=O)c2ccccc2C1=C1C(=O)c2ccccc2C1=O)c1ccccc1 (configuration not stated)	> 100	> 100	> 100	> 100	> 100	> 100	> 100	> 100	> 100	> 100	> 100	> 100	> 100	> 100	–	–	–	–	–	–
CCN(CC)CCO/N=C1/C=C2CCC3C(CC[C@@]4(C)C3CC[C@]4(C)O)[C@@]2(C)CC1 (some centres not stated)	–	–	21	–	–	–	15.6	20.4	8.29	16.3	–	–	–	–	68	–	–	–	–	–
CCOP(=O)(OCC)/C(C#N)=C/c1ccnc2ccccc12	–	–	> 100	–	–	–	> 100	52	57.9	88.2	–	–	–	–	> 100	–	–	–	–	–
Cc1nc2c(=O)n3c4c(cccc4c2o1)CCC3	–	–	> 100	–	–	–	> 100	> 100	> 100	> 100	–	–	–	–	> 100	–	–	–	–	–
